In patent US8742121B2, “Process for the preparation of small molecule inhibitors of MDM2 and intermediates used therein” (The Regents of the University of Michigan, priority 2005, dated 2014):
Where two headings read alike, the source gives them in different places. Blank lines part the entries; values can stand above or below the compound they belong to.

What was measured:
[1] = biological target: T1, recombinant human MDM2 protein (residues 1-118, His-tag) (Homo sapiens, UniProt Q00987); experiment: Fluorescence polarization (FP)-based competitive binding assay with PMDM6-F probe; settings: for Ki: competition with PMDM6-F, FIG. 4B/5
T1 construct: The recombinant MDM2 human protein (residues 1-118) fused to His-tag at the N terminus; His-tag (N)

[2] = tested on: LNCaP prostate cancer cells (p53 wild-type); experiment: WST-8 cell growth inhibition assay, LNCaP; type: cell-based; settings: Homo sapiens, 96 h
[3] = tested on: PC-3 prostate cancer cells (p53 null); experiment: WST-8 cell growth inhibition assay, PC-3
[4] = tested on: normal human prostate epithelial cells (PrEC) with wild-type p53; experiment: WST-8 cell growth inhibition assay, PrEC; type: cell-based
[5] = tested on: p53, MDM2 and p21 expression in RKO (wild-type p53) cells; experiment: Western blot of p53 and its target gene products MDM2 and p21; type: cell-based; settings: 24 hours; RKO compared with HT-29 (mutant p53), FIG. 12
Protocol: Cancer cells were treated with test compounds or 0.1% DMSO for 24 hours. Cells were harvested by trypsinization and washed with cold phosphate buffer saline, pH 7.5 (Invitrogen, Carlsbad, Calif.). Cells were lysed for 30 minutes in ice-cold lysis buffer (50 mM Tris (pH 7.5), 150 mM NaCl, 1 mM EDTA (pH 8.0), 25 mM sodium fluoride, 1% NP-40 and 0.1% SDS) containing 2 mM sodium orthovanadate, 1 mM phenylmethylsulfonyl fluoride and protease inhibitor cocktail (Roche Applied Science, Indianapolis, Ind.). Next, cell extracts were centrifuged at 12,000×g at 4° C. for 10 minutes to obtain clarified lysates. Protein was estimated by Bio-Rad dye. Cell lysates containing […] protein were resolved on a 4-20% tris-glycine gel (Invitrogen, Carlsbad, Calif.) and transferred onto poly(vinylidene difluoride) membranes. Immunodetection of proteins on the transfer membrane was performed by using anti-p53 (Ab-6, Oncogene Research Products, Boston, Mass.), anti-MDM2 (SMP14, Santa Cruz Biotechnology, Santa Cruz, Calif.) and anti-p21 (BD Biosciences, San Diego, Calif.) mouse monoclonal antibodies. Antibody to β-actin (Sigma, St Louis, Mo.) was used to assess the protein loading.

[6] = tested on: CCD-18Co normal colon fibroblast cells; experiment: Cell cycle progression (BrdU/7-AAD flow cytometry), CCD-18Co; type: cell-based; settings: 22 + 2 hours, FIG. 14
Protocol: (§1) Cell cycle progression was evaluated in RKO (wild-type p53) and HT-29 (mutant p53) colon cancer cell lines and CCD-18Co normal colon fibroblast cells by determining S-phase cells by incorporation of bromodeoxyuridine (BrdU) followed by staining with FITC-labeled anti-BrdU antibody and the total DNA-content by staining with 7-aminoactinomycin D (7-AAD) according to manufacturer's instructions (BD Biosciences, San Jose, Calif.). Briefly, cancer and normal cells, after overnight incubation, were treated with out test compounds for 22 hours, followed by an additional 2 hours of incubation with 10 μM of BrdU. Cells were harvested, fixed and stained with FITC-labeled anti-BrdU and 7-AAD. Cell cycle distribution was analyzed by flow cytometry. Cells were acquired and data analyzed by using CellQuest software (BD Biosciences).

p53-MDM2 interaction = biological target: T2, p53-MDM2 interaction (Homo sapiens, UniProt Q00987); experiment: Co-immunoprecipitation/Western blotting of p53-MDM2 interaction in HCT116 lysates; type: biochemical; settings: increasing concentrations, 1 h at 4° C., FIG. 10
T2 construct: endogenous in cells; host or cells: HCT116 colon cancer cells (lysate)
Protocol: Co-immunoprecipitation (Co-IP)/Western blotting assays were performed to assess the effects of Ke-43 on p53-MDM2 interaction. After harvesting and washing once with cold PBS, HCT116 colon cancer cells were lysed by sonication in cold Co-IP buffer (50 mM Tris (pH 7.5), 150 mM NaCl, 1 mM EDTA (pH 8.0), 0.5% NP-40) containing 1 mM phenylmethylsulfonyl fluoride and protease inhibitor cocktail. Sonicated lysates were then centrifuged at 12,000×g at 4° C. for 15 minutes. Supernatant containing 2 mg protein was incubated in the absence or presence of Ke-43 for 1 h at 4° C., followed by addition agarose beads, conjugated either with anti-p53 antibody (FL-393, Santa Cruz) or with a non-specific antibody. After mixing for 2 h at 4° C., the agarose beads were washed 3 times with cold Co-IP buffer, boiled in sample buffer followed by SDS-PAGE and the presence of p53 and MDM2 was detected by Western blotting with mouse monoclonal antibodies against p53 and MDM-2 proteins.

[7] = tested on: HCT116 (wild-type p53) colon cancer cells; experiment: WST-8 cell growth inhibition assay, HCT116; type: cell-based
[8] = tested on: RKO (wild-type p53) colon cancer cells; experiment: Cell cycle progression (BrdU/7-AAD flow cytometry), RKO; type: cell-based; settings: 22 + 2 hours, FIG. 14
Protocol: as §1

[9] = tested on: HT-29 (mutant p53) colon cancer cells; experiment: Cell cycle progression (BrdU/7-AAD flow cytometry), HT-29; type: cell-based; settings: HT-29, 22 + 2 hours, FIG. 14
Protocol: as §1

[10] = tested on: RKO (wild-type p53) colon cancer cells; experiment: Cell death (trypan blue) and apoptosis (sub-diploid DNA, PI staining); type: cell-based; settings: 4 days; RKO compared with HT-29 and CCD-18Co, FIG. 13
Protocol: RKO (wild-type p53) and HT-29 (mutant p53) colon cancer cell lines and CCD-18Co normal colon fibroblast cells were treated with increasing doses of Ke-43 or Ke-61 for 4 days in 6-well Petri dishes. Trypan blue dye exclusion assays were performed to determine the ability of the inhibitors to induce cell death. After 4 days of treatment, floating and adherent cells were harvested and stained with 0.2% of trypan blue solution (Sigma, St Louis, Mo.). Each treatment was performed in triplicate and at least 100 cells were counted. Cells stained blue or morphologically unhealthy cells were scored as dead cells. To evaluate apoptosis, sub-diploid DNA content in cells treated with or without test inhibitors was analyzed by propidium iodide (PI) staining After washing once with cold PBS, cells were fixed in 70% ethanol for 1 day at −20° C. Ethanol-fixed cells were then washed twice with PBS and stained with a staining solution containing propidium iodide (PI) at 50 ng/ml and RNAse A at 100 ng/ml in PBS, for 20 minutes in dark at room temperature. Acquisition of cells and analysis of sub-diploid DNA content was performed by flow cytometry using CellQuest software.

[11] = tested on: RKO (wild-type p53) colon cancer cells; experiment: WST-8 cell growth inhibition assay, RKO; type: cell-based
[12] = tested on: PrEC normal prostate epithelial cells; experiment: Protection of normal cells from TAXOL (trypan blue viability); type: cell-based, human; settings: pretreatment 1 μM and 2.5 μM for 24 hours, then 1 μM TAXOL for 2 days, FIG. 15
Protocol: PrEC normal prostate epithelial cells were seeded in 6 well pates and incubated with Ke-63 (1 μM and 2.5 μM) for 24 hours, then 1 μM TAXOL (paclitaxel) was added for 2 days. Trypan blue was used to determine cell viability.

[13] = 4 days, FIG. 6, read-out: IC50 inhibition of cell growth

SMILES: CN(C)C(=O)[C@@H]1N[C@H](CC(C)(C)C)[C@]2(C(=O)Nc3cc(Cl)ccc32)[C@H]1c1cccc(Cl)c1 [Example 1d, (2′R,3S,4′R,5′R) 6-Chloro-4′-(3-Chloro-Phenyl)-2-Oxo-2′-(2,2-Dimethylpropyl)-1,2-Dihydro-Spiro[Indole-3,3′-Pyrrolidine]-5′-Carboxylic Acid Dimethylamide]
IC50 ([3]; Homo sapiens, 96 h, read-out: IC50 inhibition of cell growth): 22500 nM
times less active in PC-3 cells than in LNCaP cells ([3]; PC-3 versus LNCaP): 27 times
IC50 ([4]; Homo sapiens, 96 h, PrEC, 4 days, FIG. 8): 6000 nM
times less potent in PrEC cells than in LNCaP cells ([4]; PrEC versus LNCaP): 13 times
IC50 ([2]; read-out: IC50 inhibition of cell growth): 830 nM

SMILES: CC(C)(C)C[C@H]1N[C@@H](C(=O)NCCN2CCOCC2)[C@H](c2cccc(Br)c2)[C@@]12C(=O)Nc1cc(Cl)ccc12 [Ke-43, (2′R,3S,4′R,5′R) 6-Chloro-4′-(3-Bromo-Phenyl)-2′-(2,2-Dimethyl-Propyl)-2-Oxo-1,2-Dihydro-Spiro[Indole-3,3′-Pyrrolidine]-5′-Carboxylic Acid (2-Morpholin-4-yl-Ethyl)-Amide]
accumulation of p53 and its target gene-products [5]: induced accumulation of p53 and its target gene-products only in RKO cells expressing wild-type p53
S-phase / cell cycle progression [6]: dose-dependent depletion of S-phase
immunoprecipitation of MDM2 by anti-p53 antibody (p53-MDM2 interaction): disrupts the interaction between p53 and MDM2
growth inhibitory activity ([7]; HCT116, 4 days, FIG. 11): potent growth inhibitory activity
specificity over cancer cells expressing mutant p53 (HT-29) ([7]; HCT116 versus HT-29): greater than 18 fold
S-phase / cell cycle progression [8]: dose-dependent depletion of S-phase
cell cycle progression [9]: no appreciable effect on cell cycle progression
Ki values (in words) ([1]; Example 132, FIG. 9, more potent than the natural p53 peptide): low nM to sub-nM range
apoptosis [10]: Only cancer cells expressing wild-type p53 underwent apoptosis
specificity over cancer cells expressing mutant p53 (HT-29) ([11]; RKO versus HT-29): greater than 13 fold
growth inhibitory activity ([11]; RKO, 4 days, FIG. 11): potent growth inhibitory activity

SMILES: COc1ccc2c(c1)NC(=O)[C@]21[C@@H](CC(C)(C)C)N[C@@H](C(=O)N(C)C)[C@@H]1c1cccc(Br)c1 [Ke-61, (2′R,3S,4′R,5′R) 4′-(3-Bromo-Phenyl)-2′-(2,2-Dimethyl-Propyl)-6-Methoxy-2-Oxo-1,2-Dihydro-Spiro[Indole-3,3′-Pyrrolidine]-5′-Carboxylic Acid Dimethylamide]
S-phase / cell cycle progression [6]: did not have a significant effect
S-phase / cell cycle progression [8]: did not have a significant effect
cell cycle progression [9]: did not have a significant effect

SMILES: CC(C)(C)C[C@H]1N[C@@H](C(=O)NCCN2CCOCC2)[C@H](c2cccc(Cl)c2F)[C@@]12C(=O)Nc1cc(Cl)ccc12 [Ke-63, (2′R,3S,4S,5′R) 6-Chloro-4′-(3-Chloro-2-Fluoro-Phenyl)-2′-(2,2-Dimethyl-Propyl)-2-Oxo-1,2-Dihydro-Spiro[Indole-3,3′-Pyrrolidine]-5′-Carboxylic Acid (2-Morpholin-4-yl-Ethyl)-Amide]
protection of cells from TAXOL (cell viability) [12]: cells were protected from TAXOL

Next, values leading:

Ki [1]: 300 nM
times more potent than 1a (Ki) ([1]; relative to 1a): 28 times
IC50 [2, 13]: 2100 nM
SMILES: CC(C)C[C@H]1N[C@@H](C(=O)N(C)C)[C@H](c2cccc(Cl)c2)[C@@]12C(=O)Nc1cc(Cl)ccc12 [Example 1b, (2′R,3S,4′R,5′R) 6-Chloro-4′-(3-Chloro-Phenyl)-2′-Isobutyl-2-Oxo-1,2-Dihydro-Spiro[Indole-3,3′-Pyrrolidine]-5′-Carboxylic Acid Dimethylamide]

Ki [1]: 7700 nM
times less potent than 1b (Ki) ([1]; relative to 1b): 26 times
SMILES: CC(C)C[C@H]1N[C@@H](C(=O)N(C)C)[C@H](c2ccc(Cl)cc2)[C@@]12C(=O)Nc1cc(Cl)ccc12 [Example 1c, (2′R,3S,4′R,5′R) 6-Chloro-4′-(4-Chloro-Phenyl)-2′-Isobutyl-2-Oxo-1,2-Dihydro-Spiro[Indole-3,3′-Pyrrolidine]-5′-Carboxylic Acid Dimethylamide]

Ki [1]: 650 nM
IC50 [2, 13]: 2700 nM
SMILES: CCC[C@H]1N[C@@H](C(=O)N(C)C)[C@H](c2cccc(Cl)c2)[C@@]12C(=O)Nc1cc(Cl)ccc12 [Example 1e, (2′R,3S,4′R,5′R) 6-Chloro-4′-(3-Chloro-Phenyl)-2-Oxo-2′-Propyl-1,2-Dihydro-Spiro[Indole-3,3′-Pyrrolidine]-5′-Carboxylic Acid Dimethylamide]

Ki [1]: 390 nM
IC50 [2, 13]: 1900 nM
SMILES: CC(C)CC[C@H]1N[C@@H](C(=O)N(C)C)[C@H](c2cccc(Cl)c2)[C@@]12C(=O)Nc1cc(Cl)ccc12 [Example 1f, (2′R,3S,4′R,5′R) 6-Chloro-4′-(3-Chloro-Phenyl)-2′-(3-Methyl-Butyl)-2-Oxo-1,2-Dihydro-Spiro[Indole-3,3′-Pyrrolidine]-5′-Carboxylic Acid Dimethylamide]
